According to patent publication EP4810038A1, “METHOD FOR TREATING ALK-POSITIVE OR ROS1-POSITIVE NON-SMALL CELL LUNG CANCER” (Shenzhen TargetRx Co., Ltd., priority 2023, dated 2025):

System: ALK-positive or ROS1-positive advanced non-small cell lung cancer
Test: Phase I clinical trial, dose escalation and expansion phases: efficacy (RECIST 1.1)
Type: in vivo, human
Method: The anti-tumor efficacy is evaluated according to RECIST version 1.1. For patients initially evaluated as having a complete response (CR) or partial response (PR), efficacy should be confirmed at least 4 weeks later. In the patients with asymptomatic central nervous system (CNS) metastases, in addition to evaluating 5 extracranial target lesions, up to 5 intracranial target lesions will also be evaluated. The specific indicators are as follows:
"CR" is defined as the disappearance of all target lesions, and the diameters of the short axis of all the pathological lymph nodes (whether target or non-target lymph nodes) must be reduced to 10 mm or less.
"PR" is defined as a reduction of at least 30% in the total diameter of the target lesions, with the total diameter of the baseline as a reference value.
"PD" is defined as an increase of at least 20% in the total diameter of the target lesions, using the minimum total diameter in the study as a reference value (this value may include the total diameter of the baseline). In addition, the absolute value of the total diameter must increase by at least 5 mm (the appearance of one or more new lesions is also considered as progressive disease).
"SD" is defined as a state in which the reduction in target lesions is insufficient to achieve partial response and the increase is insufficient to achieve progressive disease.
"ORR" includes CR and PR, and is defined as the proportion of patients who achieve complete response or partial response.
"IC-ORR" includes CR or PR for confirmed intracranial lesions, and is defined as the proportion of the patients with complete response or partial response of intracranial lesions among the patients with intracranial lesions.
"DCR" is defined as the proportion of the patients who achieve response (PR+CR) and stable disease (SD) after a treatment.
"IC-DCR" is defined as the proportion of the patients who achieve intracranial response (PR+CR), intracranial stable disease (SD), and […] after a treatment among the patients with intracranial lesions.
"DOR" is defined as the time from the first assessment of CR or PR to progressive disease or death, and is only applicable to the patients who achieve response.
"IC-DOR" is defined as the time from the first assessment of intracranial CR or intracranial PR to progressive disease or death, and is only applicable to the patients whose intracranial lesions achieve response.
"TTR" is defined as the time from patient enrollment (first dose of investigational drug) to tumor response (CR/PR), based on the patients with objective response.
"IC-TTR" is defined as the time from patient enrollment (first dose of investigational drug) to intracranial tumor response (IC-CR/PR), based on the patients with intracranial objective response.
Approximately eight dose groups in total were set in the dose escalation phase, which were 5 (the starting dose), 10, 20, 40, 60, 80, 100, and 125 mg, respectively. Subjects in all the dose groups received a single dose on day 1 (D1), and the blood samples were collected for pharmacokinetic (PK) assay and tolerability observation. If no grade 2 or a higher-level adverse event related to the investigational drug occurred during the single-dose period (5 to 7 days) (if such events occurred, dose adjustments would be made based on the toxicity according to the protocol), the subject entered the multiple-dose period (i.e., treatment period) 5 to 7 days later (7 days after the first administration in the first dose group (i.e., starting the multiple-dose treatment on day 8), and the intervals for the subsequent dose groups were determined based on the obtained tolerability and PK data). […]

[2H]C([2H])([2H])n1nc2c(c1C#N)-c1cnc(N)c(c1)O[C@H](C)c1cc(F)ccc1C(=O)N(C)C2 [compound A, (10R)-7-amino-12-fluoro-2-(methyl-d3)-10,16-dimethyl-15-oxo-10,15,16,17-tetrahydro-2H-8,4-(metheno)pyrazolo[4,3-h][2,5,11]benzoxadiazacyclotetradecine-3-carbonitrile]
BOR CR (intracranial, 10mg (N=1)): 0 n (%) | BOR NE (intracranial, 10mg (N=1)): 0 n (%) | BOR PD (intracranial, 10mg (N=1)): 0 n (%) | BOR PR (intracranial, 10mg (N=1)): 1 (100) n (%) | BOR SD (intracranial, 10mg (N=1)): 0 n (%) | Confirmed IC-ORR (95% CI) (intracranial, 10mg (N=1)): 1 (100) (2.5, 100.0) n (%) | IC-DCR (95% CI) (intracranial, 10mg (N=1)): 1 (100) (2.5, 100.0) n (%) | Median IC-DOR (95% CI) (intracranial, 10mg (N=1)): 5.55 (-, -) months | Median IC-TTR (range) (intracranial, 10mg (N=1)): 1.35 (1.35, 1.35) months | BOR CR (intracranial, 20mg (N=1)): 0 n (%) | BOR NE (intracranial, 20mg (N=1)): 0 n (%) | BOR PD (intracranial, 20mg (N=1)): 0 n (%) | BOR PR (intracranial, 20mg (N=1)): 1 (100) n (%) | BOR SD (intracranial, 20mg (N=1)): 0 n (%) | Confirmed IC-ORR (95% CI) (intracranial, 20mg (N=1)): 1 (100) (2.5, 100.0) n (%) | IC-DCR (95% CI) (intracranial, 20mg (N=1)): 1 (100) (2.5, 100.0) n (%) | Median IC-TTR (range) (intracranial, 20mg (N=1)): 1.35 (1.35, 1.35) months | BOR CR (intracranial, 40mg (N=4)): 0 n (%) | BOR NE (intracranial, 40mg (N=4)): 1 (25.0) n (%) | BOR PD (intracranial, 40mg (N=4)): 0 n (%) | BOR PR (intracranial, 40mg (N=4)): 0 n (%) | BOR SD (intracranial, 40mg (N=4)): 3 (75.0) n (%) | Confirmed IC-ORR (95% CI) (intracranial, 40mg (N=4)): 0 (0.0, 60.2) n (%) | IC-DCR (95% CI) (intracranial, 40mg (N=4)): 3 (75.0) (19.4, 99.4) n (%) | BOR CR (intracranial, 60mg (N=2)): 0 n (%) | BOR NE (intracranial, 60mg (N=2)): 0 n (%) | BOR PD (intracranial, 60mg (N=2)): 0 n (%) | BOR PR (intracranial, 60mg (N=2)): 2 (100) n (%) | BOR SD (intracranial, 60mg (N=2)): 0 n (%) | Confirmed IC-ORR (95% CI) (intracranial, 60mg (N=2)): 2 (100) (15.8, 100.0) n (%) | IC-DCR (95% CI) (intracranial, 60mg (N=2)): 2 (100) (15.8, 100.0) n (%) | Median IC-DOR (95% CI) (intracranial, 60mg (N=2)): 17.97 (-, -) months | Median IC-TTR (range) (intracranial, 60mg (N=2)): 4.11 (1.35, 6.87) months | BOR CR (intracranial, 80mg (N=4)): 0 n (%) | BOR NE (intracranial, 80mg (N=4)): 1 (25.0) n (%) | BOR PD (intracranial, 80mg (N=4)): 0 n (%) | BOR PR (intracranial, 80mg (N=4)): 1 (25.0) n (%) | BOR SD (intracranial, 80mg (N=4)): 2 (50.0) n (%) | Confirmed IC-ORR (95% CI) (intracranial, 80mg (N=4)): 1 (25.0) (0.6, 80.6) n (%) | IC-DCR (95% CI) (intracranial, 80mg (N=4)): 3 (75.0) (19.4, 99.4) n (%) | Median IC-TTR (range) (intracranial, 80mg (N=4)): 1.51 (1.51, 1.51) months | BOR CR (intracranial, 100mg (N=2)): 0 n (%) | BOR NE (intracranial, 100mg (N=2)): 0 n (%) | BOR PD (intracranial, 100mg (N=2)): 0 n (%) | BOR PR (intracranial, 100mg (N=2)): 0 n (%) | BOR SD (intracranial, 100mg (N=2)): 2 (100) n (%) | Confirmed IC-ORR (95% CI) (intracranial, 100mg (N=2)): 0 (0.0, 84.2) n (%) | IC-DCR (95% CI) (intracranial, 100mg (N=2)): 2 (100) (15.8, 100.0) n (%) | BOR CR (intracranial, 125mg (N=1)): 0 n (%) | BOR NE (intracranial, 125mg (N=1)): 0 n (%) | BOR PD (intracranial, 125mg (N=1)): 0 n (%) | BOR PR (intracranial, 125mg (N=1)): 0 n (%) | BOR SD (intracranial, 125mg (N=1)): 1 (100) n (%) | Confirmed IC-ORR (95% CI) (intracranial, 125mg (N=1)): 0 (0.0, 97.5) n (%) | IC-DCR (95% CI) (intracranial, 125mg (N=1)): 1 (100) (2.5,100.0) n (%) | BOR CR (systemic, 5mg (N=1)): 0 n (%) | BOR NE (systemic, 5mg (N=1)): 0 n (%) | BOR PD (systemic, 5mg (N=1)): 0 n (%) | BOR PR (systemic, 5mg (N=1)): 0 n (%) | BOR SD (systemic, 5mg (N=1)): 1 (100) n (%) | Confirmed ORR (95% CI) (systemic, 5mg (N=1)): 0 (0.0, 97.5) n (%)
